Experimental data published in patent US20120122797A1, “PEPTIDIC COMPOUND AND USE OF SAME” (KEIO UNIVERSITY, priority 2009, published 2012).
≈ marks a conversion by molar mass, not a printed value. Numbered stars: 1 amine (or outer) side, 2 acyl side, 3 side chain; on linkers, the order of the positions; unused ones are H or OH. Square brackets hold non-standard residues; d marks the D form. Peptide text beside a SMILES is read from it. * marks the point of attachment. ξ: configuration not given here. X1 = C[C@H]1C[C@@H](C2=N[C@](C)(C(=O)[*:2])CS2)N([*:1])C1; ξNMeTyr(3-Br) = CNC(Cc1ccc(O)c(Br)c1)C(=O)O; NMeF = CN[C@@H](Cc1ccccc1)C(=O)O; Piv = CC(C)(C)C(=O)*; X2 = CCC(=O)C1CCCN1*

Key:
Assay type in all cases: cell-based
HeLa S3 cell = assay: growth inhibitory activity against HeLa S3 cell; conditions: Homo sapiens
From the text: The present inventors conducted research on the derivatives of the compound to complete the present invention.
The cyanobacterium Lyngbya sp. collected in Okinawa Prefecture was extracted with MeOH, and partitioned between H2O and AcOEt. The resulting AcOEt layer was further partitioned between 90% MeOH and n-hexane. The 90% MeOH layer thus obtained was separated and purified with various chromatographies using the growth inhibitory activity against tumor cells as an index. As a result, Bisebromoamide (1), which is a novel peptide, was isolated.
The planar structure of the compound was primarily determined by various two-dimensional NMR spectral analyses. […] Subsequently, in order to determine the absolute configuration of Bisebromoamide (1) including eight chiral centers, acid hydrolysis was conducted using 9 M HCl. The resulting acid hydrolysate was fractionated by HPLC, obtaining fractions of Leu, N-Me-Tyr, 4-Me-Pro, N-Me-Phe, Opp, and that of a mixture of Ala and 2-methylcystine. […] Furthermore, 4-Me-Pro, Opp, Ala, and 2-methylcystine were subjected to derivatization using Marfey's reagent, and then analyzed by reversed phase HPLC. […] However, it also turned out that the Opp and 4-Me-Pro completely epimerized at a-position during the acid hydrolysis. Therefore, we reduced the ketone of Opp using NaBH4 before conducting the acid hydrolysis. […]

phosphorylation of AKT = assay: protein kinase inhibition: Western blot of phosphorylated AKT in PDGF-stimulated NRK cells; conditions: treated 3 hours, PDGF stimulation, 10, 1 and 0.1 μM
Experimental: (§1) NRK cells were seeded in a 96-well plate, and cultured for 3 days. A sample solution was added thereto and treated for 3 hours, followed by PDGF stimulation. Electrophoretic samples were prepared to conduct Western blot using antibodies against phosphorylated signal transduction molecules (AKT, ERK, PKD, PLCγ1, and S6 ribosomal protein) and phosphotyrosine. The effect on the intracellular signal transduction from a PDGF receptor was evaluated. […] The eIF4E, 4E-BP-1, and histone H3 bands confirmed that equal amounts of proteins subjected to electrophoresis.
(§2) Bisebromoamide (1) was added in such a manner that the final concentration became 0.01, 0.1, 1, and 10 μM, in order to determine the presence or absence of inhibition, and the inhibition pattern thereof. The effective inhibitory concentration against each signal transduction molecule activity was investigated.

phosphorylation of ERK = assay: protein kinase inhibition: Western blot of phosphorylated ERK in PDGF-stimulated NRK cells
Experimental: as §1, §2

[1] = system: 39 types of human cancer cells; assay: growth inhibitory activity screening using 39 types of human cancer cells (sulforhodamine B colorimetric assay); conditions: 48 h, 39 human cancer cell lines, cultured for 2 days, read-out: average GI50 value across all of the cell lines tested
Experimental: Bisebromoamide (1) is a strong cytotoxic substance containing a high degree of D-amino acids and unusual amino acids. In particular, compounds having a 4-Me-Pro, N-Me-3-bromo-Tyr, and N-pivalamide moiety linking to 4-methylthiazoline are very rare, and the 2-Opp unit is unprecedented in natural products. Bisebromoamide (1) was subjected to screening using 39 types of human cancer cells. […] The average GI50 value across all of the cell lines tested was 40 nM.
Cancer cells were seeded in a 96-well plate. A sample solution was added thereto on the following day, and cultured for 2 days. Cell growth was evaluated by sulforhodamine B colorimetric assay. The 39 total cancer cell lines that were tested included 7 lung cancer (Lu) lines, 6 stomach cancer (St) lines, 5 colon cancer (Co) lines, 6 brain neoplasm (CNS) lines, 5 breast cancer (Br) lines, 2 renal cancer (Re) lines, 2 prostatic cancer (xPg) lines, and 1 melanoma (Me) line. The effective concentration deviation of each cancer cell stock from the mean effective drug concentration of the 39 cancer cell lines measured was calculated and expressed as the fingerprint.

[2] = system: phosphorylation of S6 ribosomal protein (S6R); assay: protein kinase inhibition: Western blot of phosphorylated S6 ribosomal protein in PDGF-stimulated NRK cells; conditions: treated 3 hours, PDGF stimulation, 10, 1 and 0.1 μM
Experimental: as §1, §2

[3] = system: phosphorylation of PKD/PKC; assay: protein kinase inhibition: Western blot of phosphorylated PKD/PKC in PDGF-stimulated NRK cells; conditions: treated 3 hours, PDGF stimulation, 10, 1 and 0.1 μM
Experimental: as §1, §2

phosphorylation of PLCγ1 = assay: protein kinase inhibition: Western blot of phosphorylated PLCγ1 in PDGF-stimulated NRK cells; conditions: treated 3 hours, PDGF stimulation, 10, 1 and 0.1 μM
Experimental: as §1, §2

cancer cell growth = assay: inhibitory activity of derivatives against cancer cell growth
From the text: The alcohol and hydrazone were examined for their inhibitory activities against cancer cell growth and phosphorylation of ERK.

CCC(=O)C1CCCN1C(=O)[C@H](Cc1ccccc1)N(C)C(=O)[C@@H](CC(C)C)NC(=O)[C@]1(C)CSC([C@@H]2C[C@H](C)CN2C(=O)C(Cc2ccc(O)c(Br)c2)N(C)C(=O)[C@H](C)NC(=O)C(C)(C)C)=N1 (stereo partly drawn) [Bisebromoamide (1), Bisebromoamide] (Piv-A[ξNMeTyr(3-Br)][X1][dL][NMeF]-X2)
IC50 (HeLa S3 cell): 0.04 µg/mL (≈ 0.0391 µM) | effect on phosphorylation of AKT (phosphorylation of AKT): no effect | inhibition of phosphorylation of ERK (phosphorylation of ERK; NRK cells, treated 3 hours, PDGF stimulation, 10, 1 and 0.1 μM): selectively inhibited | GI50 [1]: 40 nM | effect on phosphorylation of S6 ribosomal protein (S6R) [2]: no effect | effect on phosphorylation of PKD/PKC [3]: no effect | effect on phosphorylation of PLCγ1 (phosphorylation of PLCγ1): no effect

CCO [alcohol]
inhibitory activity against phosphorylation of ERK, compared with Bisebromoamide (1) (phosphorylation of ERK): Results similar to those for Bisebromoamide (1) | inhibitory activity against cancer cell growth, compared with Bisebromoamide (1) (cancer cell growth): Results similar to those for Bisebromoamide (1)
